From patent US20120184542A1, “PYRIDO PYRIMIDINES” (priority 2011, published 2012)

How the values were obtained:
Human DYRK1B = biological target: T1, Human DYRK1B (Homo sapiens, UniProt Q9Y463); experiment: DYRK1B Kinase TR-FRET (IMAP-Tb) Assay; type: biochemical; conditions: for inhibition at 10 µM: read-out: % inhibition of DYRK1B at 10 μM test compound concentration; for IC50: TR-FRET (IMAP-Tb), ATP 70 μM, 37° C. 60 minutes, read-out: Enzyme IC50 (μM) DYRK1B
T1 construct: purchased Invitrogen PR8350B (former PV4649)
T1 sequence (Q9Y463 whole entry): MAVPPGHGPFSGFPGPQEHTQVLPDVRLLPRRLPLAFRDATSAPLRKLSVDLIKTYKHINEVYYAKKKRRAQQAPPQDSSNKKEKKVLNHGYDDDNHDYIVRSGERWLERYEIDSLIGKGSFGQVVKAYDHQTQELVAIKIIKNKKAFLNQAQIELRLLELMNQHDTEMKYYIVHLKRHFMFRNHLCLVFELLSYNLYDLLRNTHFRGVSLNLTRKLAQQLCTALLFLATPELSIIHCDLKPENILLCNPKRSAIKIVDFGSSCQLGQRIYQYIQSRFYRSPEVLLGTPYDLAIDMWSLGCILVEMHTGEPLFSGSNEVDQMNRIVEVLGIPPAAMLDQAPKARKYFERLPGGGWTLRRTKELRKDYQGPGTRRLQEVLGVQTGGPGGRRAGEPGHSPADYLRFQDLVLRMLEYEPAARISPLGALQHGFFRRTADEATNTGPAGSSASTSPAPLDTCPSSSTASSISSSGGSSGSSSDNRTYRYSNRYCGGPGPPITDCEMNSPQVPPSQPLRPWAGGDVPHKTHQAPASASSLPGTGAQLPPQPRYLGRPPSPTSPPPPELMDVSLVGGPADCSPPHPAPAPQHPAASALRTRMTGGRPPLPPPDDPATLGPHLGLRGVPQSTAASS

Human DYRK1A = biological target: T2, Human DYRK1A (Homo sapiens, UniProt Q13627); experiment: DYRK1A Kinase TR-FRET (IMAP-Tb) Assay; type: biochemical; conditions: for inhibition at 10 µM: read-out: % inhibition of DYRK1A at 10 μM test compound concentration; for IC50: TR-FRET (IMAP-Tb), ATP 70 μM, 37° C. 60 minutes, read-out: Enzyme IC50 (μM) DYRK1A
T2 construct: purchased Invitrogen PV3997
From the text: The kinase TR-FRET (IMAP-Tb) assay uses a fluorescence labeled substrate peptide in the kinase reaction. Upon phosphorylation by the kinase, phosphopeptide is produced, which will be detected by the binding solution provided in IMAP TR-FRET binding kit. After the completion of the kinase reaction, the reaction will be stopped by adding the binding solution containing terbium tracer. This tracer is immobilized on the surface of the IMAP beads, which also contain metal ions on the beads that bind to the phospho-groups of the products. Thus the phosphorylated product of the reaction can enter into close proximity to the tracer, producing resonance energy transfer. Due to the long lifetime of terbium (Tb) fluorescence the detection can be run in time resolved mode, which virtually eliminates fluorescence interference from assay components or compounds.
The TR-FRET signal measurement from this assay, given as an IC50 measurement, is a measure of a test compound's ability to interfere with the phosphorylation of the peptide substrate, that is it inhibits the phosphorylation of the substrate peptide by DYRK1A, and is thus a measure of the test compound's ability to inhibit the activity of DYRK1A.
• 1. Human DYRK1A: from Invitrogen. Part #PV3997 • 2. Substrate Peptide: […] • 3. IMAP TR-FRET IPP Explorer Kit: from Molecular Devices. Part #R8157 • 4. Kinase Assay Buffer (KAB): 10 mM HEPES pH 7.0, 50 mM NaCl, 5 mM MgCl2, 1 mM DTT, 1 mM NaVO4, 200 μg/mL BSA (0.02%) • 5. Assay Plate: Remp polypropylene clear 384-well microplate. […] Detection Plate: Costa black 384-well microplate.
• 1. Transfer 1.5 μL of 20× compound solution to each well of an assay plate. • 2. Add to each well 22.5 μL of KAB Buffer. • 3. Add to each well 3 μL of the solution of DYRK1A and ATP. […] Add to each well 3 μL of the substrate peptide. The assay concentration is 1.0 μM • 5. Incubate the assay plates at 37° C. for 60 minutes. • 6. Add 18 μL of Detection Solution (1:800 diluted Progress bead stock, 1:400 diluted Tb stock, 80% Buffer A, and 20% Buffer B) into each well of detection plates. • 7. Transfer 6 μL of assay solution from the assay plate to the detection plate. • 8. Shake detection plates for 30 minutes. • 9. Read plates in Envision with wavelength set at excitation 340 nm for Tb, emission 490 nm, and […].

CCOCCNc1ncc2cc(C(=O)Nc3cc(C(=O)OC)ccc3Cl)c(=O)[nH]c2n1 [Example 42, 4-Chloro-3-{[2-(2-ethoxy-ethylamino)-7-oxo-7,8-dihydro-pyrido[2,3-d]pyrimidine-6-carbonyl]-amino}-benzoic acid methyl ester] showed an inhibition at 10 µM (Human DYRK1B) of 39% and an inhibition at 10 µM (Human DYRK1A) of 60%.
Work on COC(=O)c1ccc(F)c(NC(=O)c2cc3cnc(OC)nc3[nH]c2=O)c1 [Example 43, 4-Fluoro-3-[(2-methoxy-7-oxo-7,8-dihydro-pyrido[2,3-d]pyrimidine-6-carbonyl)-amino]-benzoic acid methyl ester] yielded an inhibition at 10 µM (Human DYRK1B) of 41% and an IC50 (Human DYRK1A) of 9.8 µM.
Work on CCN(CC)CCOc1ncc2cc(C(=O)Nc3cc(C(=O)OC)ccc3Cl)c(=O)[nH]c2n1 [Example 45, 4-Chloro-3-{[2-(2-diethylamino-ethoxy)-7-oxo-7,8-dihydro-pyrido[2,3-d]pyrimidine-6-carbonyl]amino}-benzoic acid methyl ester] yielded an IC50 (Human DYRK1B) of 0.85 µM and an IC50 (Human DYRK1A) of 0.729 µM.
COc1ncc2cc(C(=O)Nc3cc(C(=O)NCc4ccc(Cl)cc4)ccc3Cl)c(=O)[nH]c2n1 [Example 46, 2-Methoxy-7-oxo-7,8-dihydro-pyrido[2,3-d]pyrimidine-6-carboxylic acid [2-chloro-5-(4-chloro-benzylcarbamoyl)-phenyl]-amide] gave an IC50 (Human DYRK1B) of 0.192 µM and an IC50 (Human DYRK1A) of 1.16 µM.
For COc1ncc2cc(C(=O)Nc3cc(C(=O)NCc4ccccc4Cl)ccc3Cl)c(=O)[nH]c2n1 [Example 47, 2-Methoxy-7-oxo-7,8-dihydro-pyrido[2,3-d]pyrimidine-6-carboxylic acid [2-chloro-5-(2-chloro-benzylcarbamoyl)-phenyl]-amide], the IC50 (Human DYRK1B) was 0.0908 µM and the IC50 (Human DYRK1A) was 0.0343 µM.
With COC(=O)c1ccc(Br)c(NC(=O)c2cc3cnc(OC)nc3[nH]c2=O)c1 [Example 48, 4-Bromo-3-[(2-methoxy-7-oxo-7,8-dihydro-pyrido[2,3-d]pyrimidine-6-carbonyl)-amino]-benzoic acid methyl ester] the IC50 (Human DYRK1B) was 0.217 µM and the IC50 (Human DYRK1A) was 0.205 µM.
In the case of COc1ncc2cc(C(=O)Nc3cc(C(=O)OCc4ccccc4)ccc3Cl)c(=O)[nH]c2n1 [Example 50, 4-Chloro-3-[(2-methoxy-7-oxo-7,8-dihydro-pyrido[2,3-d]pyrimidine-6-carbonyl)-amino]-benzoic acid benzyl ester], the inhibition at 10 µM (Human DYRK1B) is reported as 3% and the inhibition at 10 µM (Human DYRK1A) is reported as 30%.
Molecule COc1ncc2cc(C(=O)Nc3cc(C(=O)OCc4ccccc4Cl)ccc3Cl)c(=O)[nH]c2n1 [Example 52, 4-Chloro-3-[(2-methoxy-7-oxo-7,8-dihydro-pyrido[2,3-d]pyrimidine-6-carbonyl)-amino]-benzoic acid 2-chloro-benzyl ester] has an IC50 (Human DYRK1B) of 5.25 µM and an IC50 (Human DYRK1A) of 1.19 µM.
Molecule COc1ncc2cc(C(=O)Nc3cc(C(=O)OCc4cccc(Cl)c4)ccc3Cl)c(=O)[nH]c2n1 [Example 53, 4-Chloro-3-[(2-methoxy-7-oxo-7,8-dihydro-pyrido[2,3-d]pyrimidine-6-carbonyl)-amino]-benzoic acid 3-chloro-benzyl ester] has an IC50 (Human DYRK1B) of over 10 µM and an inhibition at 10 µM (Human DYRK1A) of 32%.
For COc1ncc2cc(C(=O)Nc3cc(C(=O)N(C)C)ccc3Cl)c(=O)[nH]c2n1 [Example 55, 2-Methoxy-7-oxo-7,8-dihydro-pyrido[2,3-d]pyrimidine-6-carboxylic acid (2-chloro-5-dimethylcarbamoyl-phenyl)-amide], the IC50 (Human DYRK1B) was 1.37 µM and the IC50 (Human DYRK1A) was 4.1 µM.
COc1ncc2cc(C(=O)Nc3cc(C(=O)NCc4cccc(C(F)(F)F)c4)ccc3Cl)c(=O)[nH]c2n1 [Example 59, 2-Methoxy-7-oxo-7,8-dihydro-pyrido[2,3-d]pyrimidine-6-carboxylic acid [2-chloro-5-(3-trifluoromethyl-benzylcarbamoyl)-phenyl]-amide] was tested, and the IC50 (Human DYRK1B) was 0.222 µM and the IC50 (Human DYRK1A) was 0.0723 µM.
For COc1ncc2cc(C(=O)Nc3cc(C(=O)N(C)Cc4ccccc4)ccc3Cl)c(=O)[nH]c2n1 [Example 60, 2-Methoxy-7-oxo-7,8-dihydro-pyrido[2,3-d]pyrimidine-6-carboxylic acid [5-(benzyl-methyl-carbamoyl)-2-chloro-phenyl]-amide], the IC50 (Human DYRK1B) was 0.357 µM and the IC50 (Human DYRK1A) was 0.561 µM.
COc1ncc2cc(C(=O)Nc3cc(C(=O)NCc4cccc(Cl)c4)ccc3C)c(=O)[nH]c2n1 [Example 62, 2-Methoxy-7-oxo-7,8-dihydro-pyrido[2,3-d]pyrimidine-6-carboxylic acid [5-(3-chloro-benzylcarbamoyl)-2-methyl-phenyl]-amide] was tested, and the IC50 (Human DYRK1B) was 0.437 µM and the IC50 (Human DYRK1A) was 0.119 µM.
In the case of COc1ncc2cc(C(=O)Nc3cc(C(=O)N(C)Cc4cccc(Cl)c4)ccc3C)c(=O)[nH]c2n1 [Example 63, 2-Methoxy-7-oxo-7,8-dihydro-pyrido[2,3-d]pyrimidine-6-carboxylic acid {5-[(3-chloro-benzyl)-methyl-carbamoyl]-2-methyl-phenyl}-amide], the inhibition at 10 µM (Human DYRK1B) is reported as 28% and the IC50 (Human DYRK1A) is reported as 4.58 µM.
With CN(Cc1cccc(Cl)c1)C(=O)c1ccc(Cl)c(NC(=O)c2cc3cnc(N4CCCCC4)nc3[nH]c2=O)c1 [Example 64, 7-oxo-2-piperidin-1-yl-7,8-dihydro-pyrido[2,3-d]pyrimidine-6-carboxylic acid {2-chloro-5-[(3-chloro-benzyl)-methyl-carbamoyl]-phenyl}-amide] the inhibition at 10 µM (Human DYRK1B) was 46.6% and the IC50 (Human DYRK1A) was 0.903 µM.
COc1ncc2cc(C(=O)Nc3cc(C(=O)NCc4ccccn4)ccc3Cl)c(=O)[nH]c2n1 [Example 66, 2-Methoxy-7-oxo-7,8-dihydro-pyrido[2,3-d]pyrimidine-6-carboxylic acid {2-chloro-5-[(pyridin-2-ylmethyl)-carbamoyl]-phenyl}-amide] was tested, and the IC50 (Human DYRK1B) was 0.282 µM and the IC50 (Human DYRK1A) was 0.16 µM.
In the case of COc1ncc2cc(C(=O)Nc3cc(C(=O)NCc4cccnc4)ccc3Cl)c(=O)[nH]c2n1 [Example 67, 2-Methoxy-7-oxo-7,8-dihydro-pyrido[2,3-d]pyrimidine-6-carboxylic acid {2-chloro-5-[(pyridin-3-ylmethyl)-carbamoyl]-phenyl}-amide], the IC50 (Human DYRK1B) is reported as 0.669 µM and the IC50 (Human DYRK1A) is reported as 0.263 µM.
For COc1ncc2cc(C(=O)Nc3cc(C(=O)NCc4ccncc4)ccc3Cl)c(=O)[nH]c2n1 [Example 68, 2-Methoxy-7-oxo-7,8-dihydro-pyrido[2,3-d]pyrimidine-6-carboxylic acid {2-chloro-5-[(pyridin-4-ylmethyl)-carbamoyl]-phenyl}-amide], the IC50 (Human DYRK1B) was 0.261 µM and the IC50 (Human DYRK1A) was 0.251 µM.
With COc1ncc2cc(C(=O)Nc3cc(C(=O)NCC(C)C)ccc3Cl)c(=O)[nH]c2n1 [Example 79, 2-Methoxy-7-oxo-7,8-dihydro-pyrido[2,3-d]pyrimidine-6-carboxylic acid (2-chloro-5-isobutylcarbamoyl-phenyl)-amide] the IC50 (Human DYRK1B) was 1.52 µM and the IC50 (Human DYRK1A) was 0.779 µM.
CCOC(=O)c1ccc(Cl)c(NC(=O)c2cc3cnc(OC)nc3[nH]c2=O)c1 [Example 82, 4-Chloro-3-[(2-methoxy-7-oxo-7,8-dihydro-pyrido[2,3-d]pyrimidine-6-carbonyl)-amino]-benzoic acid ethyl ester] was tested, and the IC50 (Human DYRK1B) was 1.11 µM and the IC50 (Human DYRK1A) was 0.463 µM.
For O=C(NCc1cccc(Cl)c1)c1ccc(Cl)c(NC(=O)c2cc3cnc(N4CCC(O)CC4)nc3[nH]c2=O)c1 [Example 92, 2-(4-Hydroxy-piperidin-1-yl)-7-oxo-7,8-dihydro-pyrido[2,3-d]pyrimidine-6-carboxylic acid [2-chloro-5-(3-chloro-benzylcarbamoyl)-phenyl]-amide], the IC50 (Human DYRK1B) was 0.035 µM and the IC50 (Human DYRK1A) was 0.0202 µM.
With CC(C)(C)CNC(=O)c1ccc(Cl)c(NC(=O)c2cc3cnc(N4CCOCC4)nc3[nH]c2=O)c1 [Example 142, 2-Morpholin-4-yl-7-oxo-7,8-dihydro-pyrido[2,3-d]pyrimidine-6-carboxylic acid [2-chloro-5-(2,2-dimethyl-propylcarbamoyl)-phenyl]-amide] the inhibition at 10 µM (Human DYRK1B) was 44% and the IC50 (Human DYRK1A) was 2.43 µM.
Work on O=C(NCc1cccc(Cl)c1)c1cc(NC(=O)c2cc3cnc(N4CCOCC4)nc3[nH]c2=O)c(Cl)cc1F [Example 144, 2-Morpholin-4-yl-7-oxo-7,8-dihydro-pyrido[2,3-d]pyrimidine-6-carboxylic acid [2-chloro-5-(3-chloro-benzylcarbamoyl)-4-fluoro-phenyl]-amide] yielded an inhibition at 10 µM (Human DYRK1B) of 23% and an IC50 (Human DYRK1A) of 0.205 µM.
